Data as given in patent publication US20070032522A1, “Antiviral agents” (priority 2005, published 2007).
pIC50: −log10 of the molar value.

System: HCV replicon-containing cells (Huh7/Clone A)
Test: HCV Replicon Assay
Format: cell-based
Conditions: Hepatitis C virus, Huh-7, 48 hours incubation, HCV replicon RNA by RT-qPCR normalized to total RNA, read-out: IC50 of inhibition of HCV replication
From the text: The HCV replicon assay is a cell-culture system that mimics in vivo HCV replication and provides a system to study HCV replication in vitro. It was created by transfecting cloned viral RNA derived from a consensus HCV genomic sequence into human Huh7 hepatoma cells that are semi-permissive for viral RNA production (Lohmann V., Korner F., Koch J.-O., Herian U., Theilmann L. and Bartenschlager R. (1999). Replication of subgenomic Hepatitis C virus RNAs in a hepatoma cell line. Science 285, 110-113 and Blight K. J., Kolykhalov A. A. and Rice C. M. (2000). Efficient initiation of HCV RNA Replication in cell culture. Science 290, 972-1974). […] Replicon-containing cells autonomously and persistently replicate HCV RNA that can be measured quantitatively by real-time qPCR. Therefore, the replicon system facilitates quantitative assessment of anti-viral activity by monitoring changes in HCV RNA replication in a cell-based assay. […]
Total RNA eluted in 130 μl of RNase-freed H2O was quantitated by the RiboGreen Assay according to the supplier's protocol (Molecular Probe). […] RNA samples in the black microplate were mixed with 95 μl of diluted RiboGreen reagent (1:250 dilution in TE buffer) and sample fluorescence was measured using a fluorescence microplate reader at standard fluorescein wavelengths (excitation ˜480 nm, emission ˜520 nm). […]

## O=C(OCc1ccc(Cl)cc1)c1cn(Cc2ccc(Cl)cc2)c2cc(N3CCNCC3)c(F)cc2c1=O [Compound 1, 1-(4-chlorobenzyl)-6-fluoro-4-oxo-7-piperazin-1-yl-1,4-dihydro-quinoline-3-carboxylic acid 4-chlorobenzyl ester]
  pIC50: > 5.30
